Source: the supplement of paper PMC10883282

Columns and labels:
Assay in all cases: standardised AUC of viability dose-response curve (72 h) (fraction (0-1)); higher = less growth inhibition (more resistant)
SK-ES-1 = tested on: SK-ES-1
Procedure, shortened: (§1)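 After 72 h with 2.5 µl of compound (compound-plate series 10 mM to 0.0002 mM), triplicate wells of sarcoma cell lines in 384-well plates were read with ATPLite, with viability scaled 1 (full) to 0 (none) and fitted with a four-parameter log-logistic model. The values give the standardised area under the dose-response curve in log-dose space from a modified drexplorer computeAUC. A value of 1 means no response and 0 means full response.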

SW684 = tested on: SW684
Procedure, shortened: as §1

MES-SA = tested on: MES-SA
Procedure, shortened: as §1

A204 = tested on: A204
Procedure, shortened: as §1

RD-ES = tested on: RD-ES
Procedure, shortened: as §1

SYO-1 = tested on: SYO-1
Procedure, shortened: as §1

SW982 = tested on: SW982
Procedure, shortened: as §1

G401 = tested on: G401
Procedure, shortened: as §1

SW1353 = tested on: SW1353
Procedure, shortened: as §1

HS729 = tested on: HS729
Procedure, shortened: as §1

SK-LMS-1 = tested on: SK-LMS-1
Procedure, shortened: as §1

KHOS-240S = tested on: KHOS-240S
Procedure, shortened: as §1

VA-ES-BJ = tested on: VA-ES-BJ
Procedure, shortened: as §1

KHOS-NP = tested on: KHOS-NP
Procedure, shortened: as §1

RD = tested on: RD
Procedure, shortened: as §1

HT1080 = tested on: HT1080
Procedure, shortened: as §1

SW872 = tested on: SW872
Procedure, shortened: as §1

| Compound | standardised AUC (SK-ES-1) | standardised AUC (SW684) | standardised AUC (MES-SA) | standardised AUC (A204) | standardised AUC (RD-ES) | standardised AUC (SYO-1) | standardised AUC (SW982) | standardised AUC (G401) | standardised AUC (SW1353) | standardised AUC (HS729) | standardised AUC (SK-LMS-1) | standardised AUC (KHOS-240S) | standardised AUC (VA-ES-BJ) | standardised AUC (KHOS-NP) | standardised AUC (RD) | standardised AUC (HT1080) | standardised AUC (SW872) |
| --- | --- | --- | --- | --- | --- | --- | --- | --- | --- | --- | --- | --- | --- | --- | --- | --- | --- |
| COc1cc2c(Oc3ccc4[nH]c(C)cc4c3F)ccnc2cc1OCC1(N)CC1 [ANLOTINIB] | 0.851 | 0.944 | 0.876 | 0.708 | 0.914 | 0.736 | 0.904 | 0.872 | 0.909 | 0.909 | 0.868 | 0.883 | 0.941 | 0.93 | 0.903 | 0.965 | 0.936 |
| CNC(=O)c1cc(Oc2ccc(NC(=O)Nc3ccc(Cl)c(C(F)(F)F)c3)cc2)ccn1 [SORAFENIB] | 0.949 | 0.936 | 0.925 | 0.756 | 0.966 | 0.841 | 0.975 | 0.916 | 0.951 | 0.943 | 0.917 | 0.93 | 0.95 | 0.907 | 0.951 | 0.944 | 0.978 |
| Cc1ccc(C(=O)OCc2ccc([C@@H](CN)C(=O)Nc3ccc4cnccc4c3)cc2)c(C)c1 [NETARSUDIL] | 0.921 | 0.926 | 0.857 | 0.85 | 0.914 | 0.884 | 0.91 | 0.949 | 0.855 | 0.966 | 0.886 | 0.828 | 0.985 | 0.951 | 0.923 | 0.952 | 0.893 |
| COc1cc(OC)cc(N(CCNC(C)C)c2ccc3ncc(-c4cnn(C)c4)nc3c2)c1 [ERDAFITINIB] | 0.818 | 0.924 | 0.796 | 0.555 | 0.891 | 0.581 | 0.816 | 0.604 | 0.868 | 0.685 | 0.91 | 0.773 | 0.912 | 0.971 | 0.924 | 0.964 | 0.856 |
| CO[C@H]1C[C@@H]2CC[C@@H](C)[C@@](O)(O2)C(=O)C(=O)N2CCCC[C@H]2C(=O)O[C@H]([C@H](C)C[C@@H]2CC[C@@H](O)[C@H](OC)C2)CC(=O)[C@H](C)/C=C(\C)[C@@H](O)[C@@H](OC)C(=O)[C@H](C)C[C@H](C)/C=C/C=C/C=C/1C [RAPAMYCIN] | 0.63 | 0.763 | 0.489 | 0.607 | 0.778 | 0.846 | 0.724 | 0.814 | 0.856 | 0.944 | 0.665 | 0.815 | 0.589 | 0.989 | 0.712 | 0.916 | 0.729 |
| CCCCCCCCCCCCCCCCCCOP(=O)([O-])OC1CC[N+](C)(C)CC1 [PERIFOSINE] | 0.952 | 0.999 | 0.954 | 0.982 | 0.994 | 0.946 | 0.99 | 0.994 | 0.962 | 0.924 | 0.941 | 0.983 | 0.968 | 0.966 | 0.996 | 0.966 | 0.915 |
| NC(=O)c1cnc2[nH]ccc2c1N[C@@H]1[C@@H]2CC3C[C@H]1C[C@@](O)(C3)C2 [PEFICITINIB] | 0.938 | 0.988 | 0.949 | 0.912 | 0.983 | 0.888 | 0.929 | 1 | 1 | 0.988 | 0.985 | 0.955 | 0.995 | 0.982 | 1 | 1 | 0.977 |
| Cc1nc(Nc2ncc(C(=O)Nc3c(C)cccc3Cl)s2)cc(N2CCN(CCO)CC2)n1 [DASATINIB] | 0.907 | 0.767 | 0.949 | 0.612 | 0.949 | 0.736 | 0.607 | 0.86 | 0.712 | 0.774 | 0.78 | 0.617 | 0.651 | 0.725 | 0.658 | 0.941 | 0.716 |
| C1=N/C2=N/c3ccc(OCCN4CCCC4)c(c3)COC/C=C/COCc3cccc(c3)C(=C1)N2 [PACRITINIB] | 0.714 | 0.758 | 0.787 | 0.736 | 0.792 | 0.747 | 0.733 | 0.793 | 0.836 | 0.855 | 0.897 | 0.811 | 0.753 | 0.898 | 0.781 | 0.853 | 0.786 |
| C#Cc1cccc(Nc2ncnc3cc(OCCOC)c(OCCOC)cc23)c1 [ERLOTINIB] | 0.893 | 0.992 | 0.941 | 0.943 | 0.983 | 0.978 | 0.927 | 0.982 | 0.926 | 0.956 | 0.968 | 0.994 | 0.955 | 0.994 | 0.984 | 0.992 | 0.946 |
| CCCS(=O)(=O)N[C@H]1C[C@@H](N(C)c2ncnc3[nH]ccc23)C1 [ABROCITINIB] | 0.985 | 0.989 | 0.996 | 0.984 | 1 | 1 | 0.997 | 0.985 | 1 | 0.982 | 0.997 | 0.989 | 1 | 0.994 | 0.995 | 1 | 0.991 |
| CN(C)C[C@@H]1CCn2cc(c3ccccc32)C2=C(C(=O)NC2=O)c2cn(c3ccccc23)CCO1 [RUBOXISTAURIN] | 0.911 | 0.991 | 0.951 | 0.926 | 0.945 | 0.861 | 0.947 | 0.954 | 0.947 | 0.969 | 0.929 | 0.99 | 0.946 | 0.99 | 0.99 | 0.995 | 0.953 |
